# Patent US20240124406A1, “INHIBITORS OF TRANSCRIPTIONAL ENHANCED ASSOCIATE DOMAIN (TEAD) AND USES THEREOF” (Dana-Farber Cancer Institute, Inc., priority 2020, published 2024)
# System: NCI-H226 cells
# Assay: Antiproliferation assay (2D adherent cell viability, CellTiter-Glo)
# Assay type: cell-based
# Settings: Homo sapiens, 120 h, 5 days treatment, cell viability by CellTiter-Glo
# Procedure: The compounds were evaluated in vitro. In addition, an anti-proliferation assay was performed using NCI-H226 cells (FIG. 2).
# The mixture of 2-fluoro-5-nitrobenzonitrile (1 g, 6.0 mmol), cyclohexanamine (0.6For 2D adherent cell viability experiment, the cells were seeded at 384-well plate (Corning, no. 3570) at the density of 200 cells/well. The next day, compounds were added using Janus workstation (PerkinElmer). After 5 days treatment, the cell viability was measured by CellTiter-Glo kit (Promega, no. G7570) as the manufacturer recommended.
row,SMILES,IC50 [nM]
1,"C=CC(=O)Nc1ccc(Nc2ccc(C(F)(F)F)cc2)c(-c2nccc(N3CCC(O)C3)n2)c1 (stereo not shown) [Compound A-7, N-(3-(4-(3-hydroxypyrrolidin-1-yl)pyrimidin-2-yl)-4-(4-(trifluoromethyl)phenylamino)phenyl)acrylamide]",17
2,"C=CC(=O)Nc1ccc(Nc2ccc(C(F)(F)F)cc2)c(-c2nccc(OCCO)n2)c1 [Compound A-11, N-(3-(4-(2-hydroxyethoxy)pyrimidin-2-yl)-4-(4-(trifluoromethyl)phenylamino)phenyl)acrylamide]",40
3,"C=CC(=O)Nc1ccc(NC2CCC(F)(F)CC2)c(-c2ncccn2)c1 [Compound A-5, N-(4-(4,4-difluorocyclohexylamino)-3-(pyrimidin-2-yl)phenyl)acrylamide]",8

# Results, then the molecule that gave them:
row,IC50 [nM],SMILES
1,4,"C=CC(=O)Nc1ccc(Nc2ccc(C(F)(F)F)cc2)c(-c2ncccn2)c1 [Compound A-21, N-(3-(pyrimidin-2-yl)-4-(4-(trifluoromethyl)phenylamino)phenyl) Acrylamide]"
2,1100,"C=CC(=O)Nc1ccc(Nc2ccc(C(F)(F)F)cc2)c(-c2cc[nH]c(=O)c2)c1 [Compound A-14, N-(3-(2-oxo-1,2-dihydropyridin-4-yl)-4-(4-(trifluoromethyl)phenylamino)phenyl)acrylamide]"
3,31,"C=CC(=O)Nc1ccc(Nc2ccc(C(F)(F)F)cc2)c(-c2cccnn2)c1 [Compound A-13, N-(3-(pyridazin-3-yl)-4-(4-(trifluoromethyl)phenylamino)phenyl) acrylamide]"
4,14,"C=CC(=O)Nc1cnc(Oc2ccc(C(F)(F)F)cc2)c(-c2ncccn2)c1 [Compound A-12, N-(5-(pyrimidin-2-yl)-6-(4-(trifluoromethyl)phenoxy)pyridin-3-yl)acrylamide]"
